Reference: publication PMC12410758, “A novel sulfamoylphenyl-dihydro-thiadiazole derivative as a dual EGFR and carbonic anhydrase inhibitor for cancer therapy” (PLOS One, 2025)
Like-named read-outs stand apart in the source and are kept apart here.

Assays:
[1] = system: MDA-MB-231 cells; assay: qRT-PCR of apoptotic markers in MDA-MB-231 cells; conditions: 16.13 µM, 72 h, control set to 1, mean ± SEM
Procedure: Quantitative Reverse Transcription-Poly¬merase Chain Reaction (qRT-PCR) Analysis
Cells were seeded in T-25 cm2 tissue culture flasks 24h before treatment with DMSO vehicle (0.01%) or
Total RNA was extracted, reverse transcribed, and assayed
for BAX, Bcl-2, caspases-8, and caspases-9 genes expression by quantitative RT-PCR. ß-actin serves as the
housekeeping gene. The quantity of BAX, Bcl-2, Caspase-8 and Caspase-9 mRNA in control and compound
Total RNA from vehicle-treated control
(0.01% DMSO) and 14-treated MDA-231 cells were extracted as-per the manufacturer instructi¬ons (RNeasy
mini kit, Qiagen, Germany). After RNA extraction, cDNA was prepared using the Revert Aid First Strand
cDNA Synthesis kit (Thermo Scientific, USA). Amplification of target cDNA for apoptosis markers and ß-
actin [as a normalization (housekeeping) gene] was done using one-step RT-PCR SYBR® Green kit Master Mix (Bio‐Rad Laboratories, USA) on Rotor-Gene Q real-time PCR thermal cycler instrument. cDNA (2 μl
aliquots) was mixed with 1 μl of forward primer, 1 μl reverse primer (Table below), 10 μl master mixture,
and the reaction volume was completed to 20 μl with nuclease-free water. All experiments were performed in

[2] = MTT safety assay, non-cancerous Vero cells; type: cell-based; conditions: African green monkey, mean ± SEM of three independent experiments, read-out: In vitro Cytotoxicity IC50 (µM) Vero
Procedure: The cell line (Vero) was obtained from ATCC via Holding company for biological products and vaccines
(VACSERA) , Cairo, Egypt.
The different cell line mentioned above were used to determine the inhibitory effects of compounds on c ell growth using the MTT assay. This colorimetric assay is based on the conversion of the yellow tetrazolium
bromide (MTT) to a purple formazan derivative by mitochondrial succinate dehydrogenase in viable cells.
Antibiotics added were 100
units/ml penicillin and 100µg/ml streptomycin at 37 C in a 5% Co2 incubator. The cellswere seedesin a 96-
well plate at a density of 1.0x10^4 cells/well.at 37 C for 48 h under 5% Co2. After incubation the cells were treated with different concentration of compounds and incubated for 24 h. After 24 h of drug treatment, 20 µl
of MTT solution at 5mg/ml was added and incubated for 4 h. Dimethyl sulfoxide(DMSO) in volume of 100µl
is added into each well to dissolve the purple formazan formed. The colorimetric assay is measured and
The relative cell viability in percentage
was calculated as (A570 of treated samples/A570 of untreated sample) X 100.

[3] = biological target: T1, EGFR (Homo sapiens, UniProt P00533); assay: In vitro EGFR inhibition (EGFR Kinase Assay Kit, BPS Bioscience); type: biochemical; conditions: mean ± SEM of three independent experiments
T1 construct: purchased BPS Bioscience, USA
Procedure: (§1) • The in vitro inhibitory activity of the tested compounds against EGFR was accomplished using EGFR
(§2) Kinase Assay Kit (BPS Bioscience, USA) at different dilutions of 1000, 300, 100, 30, 10, 3, 1, and 0.3 nM.
In vitro carbonic anhydrase inhibition

[4] = biological target: T2, hCA_IX (Homo sapiens, UniProt Q16790); assay: In vitro carbonic anhydrase (IX) inhibition (assay kit, BPS Bioscience); type: biochemical; conditions: mean ± SEM of three independent experiments
T2 construct: purchased BPS Bioscience, USA
Procedure: as §1, §2
In vitro carbonic anhydrase inhibition

[5] = system: MCF-7 cells; assay: MTT cytotoxicity, MCF-7; conditions: for Average of Relative viability of cells (%) MCF-7: 24 h; for IC50: read-out: In vitro Cytotoxicity IC50 (µM) MCF-7, mean ± SEM of three independent experiments
Procedure: (§3) The cell lines mentioned above were used to determine the inhibitory effects of compounds on cell growth
(§4) using the MTT assay. This colorimetric assay is based on the conversion of the yellow tetrazolium bromide (MTT) to a purple formazan derivative by mitochondrial succinate dehydrogenase in viable cells. Cell lines
(§5) Antibiotics added were 100 units/ml penicillin and 100µg/ml streptomycin at 37 C in a 5% Co2 incubator. The cell lines were seedesin a 96-well
(§6) plate at a density of 1.0x10^4 cells/well. at 37 C for 48 h under 5% Co2. After incubation the cells were treated
(§7) with different concentration of compounds and incubated for 24 h. After 24 h of drug treatment, 20 µl of MTT solution at 5mg/ml was added and incubated for 4 h. Dimethyl sulfoxide (DMSO) in volume of 100 µl is
(§8) added into each well to dissolve the purple formazan formed. The colorimetric assay is measured and recorded
(§9) The relative cell viability in percentage was
(§10) calculated as (A570 of treated samples/A570 of untreated sample) X 100.

[6] = biological target: T3, hCA_XII (Homo sapiens, UniProt O43570); assay: In vitro carbonic anhydrase (XII) inhibition (assay kit, BPS Bioscience); type: biochemical; conditions: mean ± SEM of three independent experiments
T3 construct: purchased BPS Bioscience, USA

[7] = system: MDA-MB-231 cells; assay: Apoptosis analysis, Annexin V-FITC/PI flow cytometry
Procedure: Apoptosis detection was carried out using Annexin V fluorescein isothiocyanate (V-FITC)/PI kit according to the reported procedures. MDA-MB-231cells cells were seeded and incubated for 24 h, then treated with
The cells were then collected, washed 3 times with PBS, fixed with ice-
cold absolute ethanol (70%) and stained with Annexin-V-FITC/propidium iodide (PI) using a double staining
kit for 20 min in the dark. Epics XL-MCL™ Flow Cytometer was used to evaluate the apoptosis.

[8] = system: MDA-MB-231 cells; assay: MTT cytotoxicity, MDA-MB-231; conditions: for Average of Relative viability of cells (%) MDA-231: 24 h; for IC50: read-out: In vitro Cytotoxicity IC50 (µM) MDA-231, mean ± SEM of three independent experiments
Procedure: as §3, §4, §5, §6, §7, §8, §9, §10

[9] = system: MDA-MB-231 cells; assay: Cell cycle analysis, PI flow cytometry; type: cell-based; conditions: 16.13 µM, 48 h
[10] = system: MDA-MB-231; parameters: method as in PMID 35896557; conditions: read-out: anti-proliferative IC50, MDA-MB-231; cited from earlier work
[11] = biological target: T1, EGFR; parameters: method as in PMID 35896557; conditions: read-out: EGFR inhibition IC50; cited from earlier work
[12] = system: MDA-MB-231 cells; parameters: method as in PMID 35896557; conditions: cited from earlier work
[13] = system: T-47D; parameters: method as in PMID 35896557; conditions: read-out: anti-proliferative IC50, T-47D; cited from earlier work

T1 sequence (P00533 25-1210): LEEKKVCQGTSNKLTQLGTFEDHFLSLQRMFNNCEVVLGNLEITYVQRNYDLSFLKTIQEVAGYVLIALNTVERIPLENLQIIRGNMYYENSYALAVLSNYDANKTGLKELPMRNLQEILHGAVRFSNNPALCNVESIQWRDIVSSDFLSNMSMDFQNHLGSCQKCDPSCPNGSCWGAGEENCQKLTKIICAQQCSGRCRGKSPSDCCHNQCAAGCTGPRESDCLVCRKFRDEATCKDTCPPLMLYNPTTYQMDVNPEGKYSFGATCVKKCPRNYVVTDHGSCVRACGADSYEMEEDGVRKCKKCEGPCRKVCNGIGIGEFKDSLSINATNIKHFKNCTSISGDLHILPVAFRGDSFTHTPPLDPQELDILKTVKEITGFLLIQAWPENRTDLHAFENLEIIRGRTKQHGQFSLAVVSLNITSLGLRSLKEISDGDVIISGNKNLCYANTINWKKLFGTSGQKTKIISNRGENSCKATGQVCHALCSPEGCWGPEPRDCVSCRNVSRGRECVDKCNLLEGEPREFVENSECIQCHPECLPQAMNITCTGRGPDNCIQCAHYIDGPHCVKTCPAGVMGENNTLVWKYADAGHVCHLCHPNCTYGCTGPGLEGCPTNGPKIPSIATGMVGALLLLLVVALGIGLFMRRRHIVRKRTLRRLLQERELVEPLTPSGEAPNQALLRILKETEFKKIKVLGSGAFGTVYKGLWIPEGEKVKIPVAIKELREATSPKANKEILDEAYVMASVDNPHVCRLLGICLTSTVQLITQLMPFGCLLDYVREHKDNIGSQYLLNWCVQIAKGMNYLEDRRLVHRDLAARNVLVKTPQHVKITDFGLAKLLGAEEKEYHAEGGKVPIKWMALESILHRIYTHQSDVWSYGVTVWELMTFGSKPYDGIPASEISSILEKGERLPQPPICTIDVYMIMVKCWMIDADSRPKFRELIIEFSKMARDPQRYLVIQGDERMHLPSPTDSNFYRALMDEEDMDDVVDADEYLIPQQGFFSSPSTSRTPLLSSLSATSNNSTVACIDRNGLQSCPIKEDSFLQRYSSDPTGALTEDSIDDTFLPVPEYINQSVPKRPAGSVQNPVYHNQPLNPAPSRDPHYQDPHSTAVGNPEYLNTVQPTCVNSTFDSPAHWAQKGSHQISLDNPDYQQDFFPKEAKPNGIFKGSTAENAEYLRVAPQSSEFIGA
T3 sequence (O43570 25-354): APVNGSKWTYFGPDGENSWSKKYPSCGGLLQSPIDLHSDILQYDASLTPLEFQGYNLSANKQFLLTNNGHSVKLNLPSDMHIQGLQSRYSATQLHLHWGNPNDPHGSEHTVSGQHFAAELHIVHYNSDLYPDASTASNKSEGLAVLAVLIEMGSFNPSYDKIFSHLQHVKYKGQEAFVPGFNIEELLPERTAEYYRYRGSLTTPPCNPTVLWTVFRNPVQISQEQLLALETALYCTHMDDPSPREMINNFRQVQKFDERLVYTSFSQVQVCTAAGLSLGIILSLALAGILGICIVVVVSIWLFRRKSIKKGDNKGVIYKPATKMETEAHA

## CCOC(=O)c1nn(-c2ccc(S(N)(=O)=O)cc2)/c(=N/N=C(\C)c2ccc(NC(C)=O)cc2)s1 [Compound 14, Ethyl (Z)-5-(((E)-1-(4-acetamidophenyl)ethylidene)hydrazineylidene)-4-(4-sulfamoylphenyl)-4,5-dihydro-1,3,4-thiadiazole-2-carboxylate]
[1]
  Gene expression (Fold Change) BAX: 3.06 ± 0.18 Fold Change
  Gene expression (Fold Change) BAX/Bcl-2 ratio: 5.56 ± 0.69 Fold Change
  Gene expression (Fold Change) Bcl-2: 0.55 ± 0.05 Fold Change
  Gene expression (Fold Change) Caspases-8: 2.37 ± 0.07 Fold Change
  Gene expression (Fold Change) Caspases-9: 2.26 ± 0.15 Fold Change
[2]
  IC50 at 24 h: 148.3 ± 1.22 µM
[3]
  IC50: 10.1 ± 0.29 nM
[4]
  IC50: 79 ± 0.3 nM
[5]; 1.56 µM
  Average of Relative viability of cells (%) MCF-7: 100%
[5]; 3.125 µM
  Average of Relative viability of cells (%) MCF-7: 90.3%
[5]; 6.25 µM
  Average of Relative viability of cells (%) MCF-7: 71.7%
[5]; 12.5 µM
  Average of Relative viability of cells (%) MCF-7: 57.6%
[5]; 25 µM
  Average of Relative viability of cells (%) MCF-7: 46.5%
[5]; 50 µM
  Average of Relative viability of cells (%) MCF-7: 35.1%
[5]; 100 µM
  Average of Relative viability of cells (%) MCF-7: 24.4%
[5]
  IC50: 22.6 ± 1.5 µM
[6]
  IC50: 58 ± 0.3 nM
[7]; 16.13 µM, 48 h, MDA-MB-231, untreated 0.32
  Apoptosis Late: 58.27%
[7]; 16.13 µM, 48 h, MDA-MB-231, untreated 0.45
  Necrosis: 0.03%
[7]; 16.13 µM, 48 h, MDA-MB-231, untreated 3.84
  Apoptosis Early: 22.50%
[7]; Homo sapiens, MDA-MB-231, 48 h, read-out: Viable cells
  viability at 16.13 µM: 19.2%
[8]; 1.56 µM
  Average of Relative viability of cells (%) MDA-231: 100%
[8]; 3.125 µM
  Average of Relative viability of cells (%) MDA-231: 86.3%
[8]; 6.25 µM
  Average of Relative viability of cells (%) MDA-231: 69.9%
[8]; 12.5 µM
  Average of Relative viability of cells (%) MDA-231: 51.0%
[8]; 25 µM
  Average of Relative viability of cells (%) MDA-231: 38.6%
[8]; 50 µM
  Average of Relative viability of cells (%) MDA-231: 26.1%
[8]; 100 µM
  Average of Relative viability of cells (%) MDA-231: 18.5%
[8]
  IC50: 16.1 ± 1.2 µM
[9]; untreated 10.59
  Cell cycle distribution (%) % G2/M: 7.94%
[9]; untreated 19.48
  Cell cycle distribution (%) %Sub-G1: 19.18%
[9]; untreated 24.95
  Cell cycle distribution (%) %S: 23.78%
[9]; untreated 44.98
  Cell cycle distribution (%) %G1: 49.10%

## COc1ccc(/C=C2/SC(N3N=C(c4cccc5ccccc45)CC3c3ccc(F)cc3)=NC2=O)cc1O (centres unmarked) [compound III]
[10]
  IC50: 3.14 µM
[11]
  IC50: 267 nM
[12]
  apoptosis induction: induced apoptosis
  cell cycle arrest phase: G2/M phase
[13]
  IC50: 620 nM

## CC(=O)Nc1nnc(S(N)(=O)=O)s1 [Acetazolamide, reference compound]
[2]
  IC50 at 24 h: 77.57 ± 0.57 µM
[5]
  IC50: 7.26 ± 0.3 µM
[8]
  IC50: 7.64 ± 0.4 µM
